Calls of active or inactive are those of the source. No rule for the calls is given here.
Columns and labels:
[1] = Stage specific inhibitors, Vaccinia infected cells, mCherry fluorescence, dry powder confirmation (AID 1053207); details: Vaccinia-infected cells, mCherry/Venus stage reporter fluorescence; for max activity: measured here: Venus reporter max activity
[2] = test system: Vaccinia-infected cells, mCherry/Venus stage reporter fluorescence; test: as above
[3] = measured here: mCherry reporter channel

| Structure (SMILES) | max activity ([1]; at 2.6 µM) | AC50 [2] | AC50 [2, 3] | activity change, negative = inhibition ([1]; at 19.5 µM (top of the series)) | max activity ([1]; at 10 µM) | AC50 ([2]; measured here: Venus reporter channel) | max activity ([1]; at 1.2 µM) |
| --- | --- | --- | --- | --- | --- | --- | --- |
| Cc1ccccc1-c1ccc(CN(C)C[C@@H]2Oc3cc(C#C[C@@H](C)O)ccc3S(=O)(=O)N([C@@H](C)CO)C[C@@H]2C)cc1 | 157% | 1230 nM | 1230 nM |  |  |  |  |
| Cc1cccc(-c2ccc(CN(C)C[C@@H]3Oc4cc(C#C[C@@H](C)O)ccc4S(=O)(=O)N([C@@H](C)CO)C[C@@H]3C)cc2)c1 | 140% | 1660 nM | 1660 nM |  |  |  |  |
| C[C@@H](O)C#Cc1ccc2c(c1)O[C@@H](CN(C)Cc1ccc(-c3ccccc3Cl)cc1)[C@@H](C)CN([C@@H](C)CO)S2(=O)=O | 145% | 1190 nM | 1190 nM |  |  |  |  |
| C[C@@H](O)C#Cc1ccc2c(c1)O[C@@H](CN(C)S(=O)(=O)c1ccc(-c3ccccc3)cc1)[C@@H](C)CN([C@@H](C)CO)S2(=O)=O |  |  | > 39000 nM | -18.5% (inactive) | -14.6% | > 39000 nM |  |
| C[C@@H](O)C#Cc1ccc2c(c1)O[C@@H](CN(C)Cc1ccc(-c3ccccc3)cc1)[C@@H](C)CN([C@@H](C)CO)S2(=O)=O | 115% | 2350 nM | 2350 nM |  |  |  |  |
| Cc1ccc(-c2ccc(CN(C)C[C@@H]3Oc4cc(C#C[C@@H](C)O)ccc4S(=O)(=O)N([C@@H](C)CO)C[C@@H]3C)cc2)cc1 |  | 1250 nM | 1250 nM |  |  |  | 122% |

From PubChem BioAssay AID1053207 (Broad Institute, 2014)
